Read-outs that look alike come from different tables or passages of the source.

Holding throughout (assay type): physicochemical
The nature of series [1]: Example 5: visible fluorescence under ultraviolet illumination. From the text: A sample of C14-16 linear alphaolefin was placed under ultraviolet illumination and its visible fluorescence noted. The fluorescence was compared to that of some other known base oils.
A short description of series [2]: Kinematic viscosity (KV) of base oils. From the text: KV: The kinematic viscosity of an oil in centistokes.
(§1) Some properties of alk-1-enes of carbon number between 12 and 20 are shown in Table 1 (which appears at the end of this description) and compared with an ester oil, a linear alkyl benzene, and a polyalphaolefin.

A further series in a line: Pour point of base oils.
Text: as §1

The nature of a further series: Flash point of base oils.
Text: as §1

With `CCCCCCCC/C=C\CCCCCCCC(=O)OCC(CC)CCCC` (stereo not drawn) [2-ethylhexyl oleate], the “Fluorescence (colour)” value in series [1] (continued lines of the cell) was “white”. In addition, the “Fluorescence (intensity)” value in series [1] (first printed line of the cell) is listed as “Medium”.

With `C=CCCCCCCCCCCCCCC` [C16], the “KV at 40° C.” value in series [2] is reported as 2.62 Cst. Moreover, the “Pour Point” value in the series “Pour point of base oils” was “+4 °C”.

With `C=CCCCCCCCCCCCCCCCC` [C18], the “KV at 40° C.” value in series [2] (40° C.) was 3.59 Cst. Further, the “Pour Point” value in “Pour point of base oils” was “+18 °C”.

As for `C=CCCCCCCCCCC` [C12], in series [2], the “KV at 40° C.” value was 1.29 Cst. For the same compound, in “Flash point of base oils”, the “Flash Point” value was determined as 77 °C. Also, the “Pour Point” value in “Pour point of base oils” is -35 °C.

As to `C=CCCCCCCCCCCCC` [C14], the “KV at 40° C.” value in series [2] (40° C.) is reported as 1.85 Cst. The “Flash Point” value in “Flash point of base oils” was 107 °C. Besides, the “Pour Point” value in the series “Pour point of base oils” is -13 °C.
